Patent US20050080113A1, “Medicinal compositions” (priority 2001, published 2005)

| Structure (SMILES) | melting point [°C] |
| --- | --- |
| CCOC(=O)Cc1nc(-c2cccc(Cl)c2)c(-c2ccnc(NC(C)=O)c2)s1 [H 103-2, ethyl [5 (2 acetylamino-4-pyridyl)-4 (3 chlorophenyl)-1,3 thiazol-2 yl]acetate] | 99 to 100 |
| CCc1nc(-c2cccc(C(=O)OC)c2)c(-c2ccnc(N)c2)s1 [H 78, methyl 3 [5 (2 amino-4 pyridyl)-2 ethyl-1,3 thiazol-4-yl]benzoate] | 173 to 174 |
| Cc1nc(-c2cccc(Cl)c2)c(-c2ccnc(NC(=O)Cc3ccccc3)c2)s1 [L 68-3, N-[4 [4 (3 chlorophenyl)-2-methyl-1,3 thiazol-5 yl]-2 pyridyl]phenylacetamide] | 99 to 101 |
| CC(=O)Nc1nc(-c2cc(C)cc(C)c2)c(-c2ccnc(C)c2)s1 [H 40-1, N-[4 (3,5 dimethylphenyl)-5 (2 methyl-4 pyridyl)-1,3 thiazol-2 yl]acetamide] | 236 to 237 |
| CCCc1cccc(-c2nc(CC)sc2-c2ccnc(NC(C)=O)c2)c1 [H 82-9, N-[4 [2 ethyl-4 (3-propylphenyl)-1,3 thiazol-5 yl]-2 pyridyl]acetamide] | 121 to 122 |
| Cc1cccc(-c2nc(NC(=O)c3ccc(C)nc3)sc2-c2ccnc(NC3CCCC3)c2)c1 [H 46-2, N-[5 (2 cyclopentylamino-4 pyridyl)-4 (3 methylphenyl)-1,3 thiazol-2 yl]-6-methylnicotinamide] | 213 to 214 |
| CCc1nc(-c2ccccc2)c(-c2ccnc(NC(C)=O)c2)s1 [H 82-1, N-[4 (2 ethyl-4 phenyl-1,3-thiazol-5 yl)-2 pyridyl]acetamide] | 175 to 176 |
| Cc1cccc(-c2nc(-c3ccc(S(C)(=O)=O)cc3)sc2-c2ccnc(N3CCN(C)CC3)c2)c1 [H 37-5, 4 (3 methylphenyl)-5 [2-(4 methyl-1 piperazinyl)-4 pyridyl]-2 (4-methylsulfonylphenyl)-1,3 thiazole] | 153 to 154 |
| Cc1cccc(-c2nc(NC(=O)Nc3ccccc3)sc2-c2ccnc(NC3CCCCC3)c2)c1 [H 53-2, N-[5 (2 cyclohexylamino-4-pyridyl)-4 (3 methylphenyl)-1,3 thiazol-2 yl]-N′-phenylurea] | 198 to 199 |
| Cc1cccc(-c2nc(NC(=O)c3ccc(C)nc3)sc2-c2ccnc(C)c2)c1 [H 45, 6 methyl-N-[4 (3-methylphenyl)-5 (2 methyl-4 pyridyl)-1,3 thiazol-2-yl]nicotinamide] | 233 to 234 |
| CC(=O)Nc1cc(-c2sc(C3CCN(C(C)=O)CC3)nc2-c2cccc(Cl)c2)ccn1 [H 93, N-[4 [2 (1 acetylpiperidin-4 yl)-4 (3 chlorophenyl)-1,3-thiazol-5 yl]-2 pyridyl]acetamide] | 160 to 161 |
| CC(F)(F)c1nc(-c2cccc(Cl)c2)c(-c2ccnc(N)c2)s1 [H 101-2, 4 [4 (3 chlorophenyl)-2-(1,1 difluoroethyl)-1,3 thiazol-5 yl]-2 pyridylamine] | 131 to 132 |
| CC(=O)Nc1nc(-c2cc(C)cc(C)c2)c(-c2ccncc2)s1 [Reference Example A 23-128, N-[4-(3,5-dimethylphenyl)-5-(4-pyridyl)-1,3-thiazol-2-yl]acetamide] | 284 to 286 |
| CCC(=O)Nc1cc(-c2sc(CC)nc2-c2cccc(C(F)(F)F)c2)ccn1 [H 84-3, N-[4 [2 ethyl-4 (3-trifluoromethylphenyl)-1,3 thiazol-5 yl]-2 pyridyl]propionamide] | 126 to 127 |
| CNc1nc(-c2cccc(C)c2)c(-c2ccnc(NC3CCCC3)c2)s1 [H 36-3, N-methyl-[5 (2-cyclopentylamino-4 pyridyl)-4 (3 methylphenyl)-1,3 thiazol-2-yl]amine] | 170 to 172 |
| CCCc1nc(-c2cccc(Cl)c2)c(-c2ccnc(NC(C)=O)c2)s1 [H 30-3, N-[4-[4-(3-chlorophenyl)-2-propyl-1,3-thiazol-5-yl]-2-pyridyl]acetamide] | 144 to 145 |
| Nc1nc(-c2cccc(Cl)c2)c(-c2ccnc(N3CCCCC3)c2)s1 [H 35-1, [4 (3 chlorophenyl)-5 (2-piperidino-4 pyridyl)-1,3 thiazol-2 yl]amine] | 206 to 208 |
| Cc1cccc(-c2nc(N(C)C(=O)c3cccnc3)sc2-c2ccnc(NC3CCCC3)c2)c1 [L 65-3, N-methyl-N-[5 (2-cyclopentylamino-4 pyridyl)-4 (3 methylphenyl)-1,3 thiazol-2-yl]nicotinamide] | 150 to 151 |
| Cc1cc(C)cc(-c2nc(N)sc2-c2cc(C)nc(C)c2)c1 [H 7-7, [4 (3,5 dimethylphenyl)-5-(2,6 dimethyl-4 pyridyl)-1,3 thiazol-2 yl]amine] | 256 to 258 |
| CCc1nc(-c2cccs2)c(-c2ccnc(NC(C)=O)c2)s1 [H 30-4, N-[4 [2 ethyl-4 (2-thienyl)-1,3 thiazol-5 yl]-2 pyridyl]acetamide] | 154 to 155 |
| Cc1cccc(-c2nc(C)sc2-c2ccnc(NC(=O)Cc3ccccc3)c2)c1 [L 68-5, N-[4 [2 methyl-4 (3-methylphenyl)-1,3 thiazol-5 yl]-2 pyridyl]phenylacetamide] | 114 to 115 |

| Structure (SMILES) | melting point [°C] |
| --- | --- |
| Cc1cccc(-c2nc(CC(F)(F)F)sc2-c2ccnc(N)c2)c1 [H 18-3, 4 [4 (3 methylphenyl)-2-(2,2,2 trifluoroethyl)-1,3 thiazol-5 yl]-2 pyridylamine] | 131 to 132 |
| COc1ccc(-c2nc(NC(C)=O)sc2-c2ccnc(N)c2)cc1 [H 50, N-[5 (2 amino-4 pyridyl)-4-(4 methoxyphenyl)-1,3 thiazol-2 yl]acetamide] | 247 to 250 |
| Cc1cccc(-c2sc(NC(=O)Nc3ccccc3)nc2-c2cc(C)nc(C)c2)c1 [H 52, N-[4 (2,6 dimethyl-4 pyridyl)-5 (3 methylphenyl)-1,3 thiazol-2 yl]-N′-phenylurea] | 173 to 174 |
| CCC(=O)Nc1cc(-c2sc(CC)nc2-c2cccc(C(C)C)c2)ccn1 [H 84-7, N-[4 [2 ethyl-4 [3 (1-methylethyl)phenyl]-1,3 thiazol-5 yl]-2 pyridyl]propionamide] | 93 to 94 |
| COc1ccc(C(=O)Nc2nc(-c3cccc(C)c3)c(-c3ccnc(NC4CCCC4)c3)s2)cn1 [H 48-2, N-[5 (2 cyclopentylamino-4 pyridyl)-4 (3 methylphenyl)-1,3-thiazol-2 yl]-6-methoxynicotinamide] | 219 to 221 |
| CCc1nc(-c2cccc(C(C)C)c2)c(-c2ccnc(NC(C)=O)c2)s1 [H 82-8, N-[4 [2 ethyl-4 [3 (1-methylethyl)phenyl]-1,3 thiazol-5 yl]-2 pyridyl]acetamide] | 116 to 117 |
| Cc1cccc(-c2nc(-c3ccc(S(C)(=O)=O)cc3)sc2-c2ccnc(NC3CCCCC3)c2)c1 [H 36-5, N-cyclohexyl-4-[4-(3-methylphenyl)-2-(4-methylsulfonylphenyl)-1,3-thiazol-5-yl]-2-pyridylamine] | 197 to 199 |
| Cc1cccc(-c2nc(-c3ccc(F)cc3)sc2-c2ccnc(NCCc3ccccc3)c2)c1 [D 19-12, N-[4 [2 (4 fluorophenyl)-4 (3 methylphenyl)-1,3 thiazol-5 yl]-2 pyridyl]-N-(2-phenylethyl)amine] | 97 to 98 |
| CCc1nc(-c2cccc(Br)c2)c(-c2ccnc(NC(=O)OC(C)(C)C)c2)s1 [H 75-1, 4 (3 bromophenyl)-5 [2-(tert-butoxycarbonylamino)-4 pyridyl]-2 ethyl-1,3 thiazole] | 172 to 174 |
| CCc1nc(-c2cccc(Cl)c2)c(-c2ccnc(N[C@@H](C)c3ccccc3)c2)s1.Cl | 165 to 166 |
| Cc1cc(C)cc(-c2nc(NC(=O)c3cccnc3)sc2-c2ccnc(C)c2)c1 [H 42-1, N-[4-(3,5-dimethylphenyl)-5-(2-methyl-4-pyridyl)-1,3-thiazol-2-yl]nicotinamide] | 203 to 206 |
| Cc1cc(C)cc(-c2nc(-c3ccc(S(C)(=O)=O)cc3)sc2-c2cc[n+]([O-])c(C)c2)c1 [H 59, 4 [4 (3,5 dimethylphenyl)-2 (4 methylsulfonylphenyl)-1,3-thiazol-5 yl]-2 methylpyridine N-oxide] | 255 to 256 |
| CCc1nc(-c2ccc(F)c(C)c2)c(-c2ccnc(N)c2)s1 [H 20-9, 4 [2 ethyl-4 (4 fluoro-3-methylphenyl)-1,3 thiazol-5 yl]-2 pyridylamine] | 134 to 135 |
| Cc1cccc(-c2nc(NC(=O)c3cccnc3)sc2-c2ccnc(NC3CCCCC3)c2)c1 [H 42-3, N-[5 (2 cyclohexylamino-4-pyridyl)-4 (3 methylphenyl)-1,3 thiazol-2 yl]nicotinamide] | 201 to 203 |
| Cc1cccc(-c2nc(-c3ccc([S+](C)[O-])cc3)sc2-c2ccnc(C)c2)c1 (stereo not drawn) [H 54, 4-(3-methylphenyl)-5-(2-methyl-4-pyridyl)-2-(4-methylsulfinylphenyl)-1,3-thiazole] | 128 to 130 |
| CCC(=O)Nc1cc(-c2sc(CCSC)nc2-c2cccc(Cl)c2)ccn1 [H 102-2, N-[4 [4 (3 chlorophenyl)-2 [2 (methylthio)ethyl]-1,3 thiazol-5 yl]-2-pyridyl]propionamide] | 91 to 92 |
| COc1ccc(C(=O)Nc2nc(-c3cccc(C)c3)c(-c3ccnc(C)c3)s2)cn1 [H 47, 6 methoxy-N-[4 (3-methylphenyl)-5 (2 methyl-4 pyridyl)-1,3 thiazol-2-yl]nicotinamide] | 224 to 226 |
| COc1ccc(-c2nc(C)sc2-c2ccnc(NC(=O)Cc3ccccc3)c2)cc1 [D 15-1, N-[4 [4 (4 methoxyphenyl)-2 methyl-1,3 thiazol-5 yl]-2 pyridyl]phenylacetamide] | 118 to 120 |
| CCC(=O)Nc1cc(-c2sc(CC)nc2-c2ccc(F)c(C)c2)ccn1 [H 84-4, N-[4 [2 ethyl-4 (4 fluoro-3 methylphenyl)-1,3 thiazol-5 yl]-2 pyridyl]propionamide] | 105 to 107 |
| CCc1nc(-c2cccc(Cl)c2)c(-c2ccnc(NC(=O)CC3CCCC3)c2)s1 [H 90-1, N-[4 [4 (3 chlorophenyl)-2-ethyl-1,3 thiazol-5 yl]-2 pyridyl]cyclopentylacetamide] | 121 to 122 |
| CC(=O)Nc1cc(-c2sc(C3CCNCC3)nc2-c2cccc(Cl)c2)ccn1.Cl.Cl | 193 to 195 |
